Experimental data from article PMC10128460, “Discovery of the first-in-class potent and isoform-selective human carbonic anhydrase III inhibitors” (Journal of Enzyme Inhibition and Medicinal Chemistry, 2023).
Values joined by “and” are separate entries in the source; they are usually repeats but may differ in a detail not shown here. Equal values may be shown once. Read-outs that look alike come from different tables or passages of the source.

Legend:
hCA XII = target: T1, hCA XII (Homo sapiens, UniProt O43570); experiment: Stopped-Flow CO2 hydrase assay, hCA XII; type: biochemical; settings: mean from 3 assays, errors ± 5–10%
T1 construct: made in house
T1 sequence (O43570 25-354): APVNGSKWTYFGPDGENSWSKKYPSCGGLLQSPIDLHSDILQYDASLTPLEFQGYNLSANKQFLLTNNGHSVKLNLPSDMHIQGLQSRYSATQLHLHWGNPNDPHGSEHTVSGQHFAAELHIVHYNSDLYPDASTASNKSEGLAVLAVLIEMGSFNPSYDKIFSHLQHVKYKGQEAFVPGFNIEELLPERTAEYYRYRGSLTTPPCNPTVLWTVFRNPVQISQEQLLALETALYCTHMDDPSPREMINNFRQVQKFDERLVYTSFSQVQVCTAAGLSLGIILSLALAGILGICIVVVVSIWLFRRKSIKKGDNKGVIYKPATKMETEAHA
Procedure: (§1) An Applied Photophysics stopped-flow instrument has been used for assaying the CA catalysed CO2 hydration activity[47]. […] The CO2 concentrations ranged from 1.7 to 17 mM for the determination of the kinetic parameters and inhibition constants. […] The uncatalysed rates were determined in the same manner and subtracted from the total observed rates. Stock solutions of inhibitor (0.1 mM) were prepared in distilled − deionized water and dilutions up to 0.01 nM were done thereafter with the assay buffer. Inhibitor and enzyme solutions were preincubated together for 15 min at room temperature before assay to allow for the formation of the E − I complex. The inhibition constants were obtained by nonlinear least-squares methods using PRISM 3 and the Cheng − Prusoff equation, as reported earlier[48]^,[49], and represent the mean from at least three different determinations. […] All hCA isoforms were recombinant ones obtained in-house as reported earlier[50].

hCA III [1] = target: T2, hCA III (Homo sapiens, UniProt P07451); experiment: Stopped-Flow CO2 hydrase assay, hCA III; type: biochemical; settings: for Selectivity Index (SI) hCA II/hCA III: ratio of KI hCA II to KI hCA III; for Ki: stopped-flow CO2 hydrase, mean from 3 assays, errors ± 5–10%; for Selectivity Index (SI) hCA I/hCA III: ratio of KI hCA I to KI hCA III
T2 construct: made in house
T2 sequence (P07451 whole entry): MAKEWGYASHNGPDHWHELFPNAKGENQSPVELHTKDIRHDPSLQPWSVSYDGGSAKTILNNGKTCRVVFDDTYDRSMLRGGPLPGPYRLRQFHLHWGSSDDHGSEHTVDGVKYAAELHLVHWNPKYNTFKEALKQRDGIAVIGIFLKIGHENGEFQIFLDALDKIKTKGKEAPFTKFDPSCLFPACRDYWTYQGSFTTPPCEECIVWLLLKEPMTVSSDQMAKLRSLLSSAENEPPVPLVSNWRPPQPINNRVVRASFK
Procedure: as §1

hCA IV = target: T3, hCA IV (Homo sapiens, UniProt P22748); experiment: Stopped-Flow CO2 hydrase assay, hCA IV; type: biochemical; settings: mean from 3 assays, errors ± 5–10%
T3 construct: made in house
T3 sequence (P22748 19-312): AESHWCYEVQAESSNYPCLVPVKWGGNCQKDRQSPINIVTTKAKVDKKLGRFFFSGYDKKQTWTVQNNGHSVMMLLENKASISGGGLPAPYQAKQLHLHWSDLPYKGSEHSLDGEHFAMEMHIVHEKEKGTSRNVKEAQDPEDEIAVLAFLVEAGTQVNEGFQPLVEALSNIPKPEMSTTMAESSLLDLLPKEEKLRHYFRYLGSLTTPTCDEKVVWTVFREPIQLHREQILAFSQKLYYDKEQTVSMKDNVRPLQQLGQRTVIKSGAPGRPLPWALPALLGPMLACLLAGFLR
Procedure: as §1

hCA VII = target: T4, hCA VII (Homo sapiens, UniProt P43166); experiment: Stopped-Flow CO2 hydrase assay, hCA VII; type: biochemical; settings: mean from 3 assays, errors ± 5–10%
T4 construct: made in house
T4 sequence (P43166 whole entry): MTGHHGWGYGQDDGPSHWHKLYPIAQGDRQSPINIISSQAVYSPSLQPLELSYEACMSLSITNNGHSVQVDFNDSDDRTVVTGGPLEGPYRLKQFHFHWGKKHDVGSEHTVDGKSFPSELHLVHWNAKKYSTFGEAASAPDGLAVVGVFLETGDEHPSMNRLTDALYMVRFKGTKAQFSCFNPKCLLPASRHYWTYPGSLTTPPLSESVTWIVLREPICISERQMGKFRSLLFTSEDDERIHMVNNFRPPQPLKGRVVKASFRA
Procedure: as §1

hCA VB = target: T5, hCA VB (Homo sapiens, UniProt Q9Y2D0); experiment: Stopped-Flow CO2 hydrase assay, hCA VB; type: biochemical; settings: mean from 3 assays, errors ± 5–10%
T5 construct: made in house
T5 sequence (Q9Y2D0 34-317): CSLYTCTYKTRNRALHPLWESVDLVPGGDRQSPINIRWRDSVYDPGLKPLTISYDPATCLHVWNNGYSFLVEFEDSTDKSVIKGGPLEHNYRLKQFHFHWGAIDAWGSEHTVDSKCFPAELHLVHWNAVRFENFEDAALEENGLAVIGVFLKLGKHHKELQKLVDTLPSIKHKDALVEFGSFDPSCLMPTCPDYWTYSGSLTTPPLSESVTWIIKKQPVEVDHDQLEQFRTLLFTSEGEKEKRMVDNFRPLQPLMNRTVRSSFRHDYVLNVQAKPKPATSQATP
Procedure: as §1

hCA I = target: T6, hCA I (Homo sapiens, UniProt P00915); experiment: Stopped-Flow CO2 hydrase assay, hCA I; type: biochemical; settings: mean from 3 assays, errors ± 5–10%
T6 construct: made in house
T6 sequence (P00915 whole entry): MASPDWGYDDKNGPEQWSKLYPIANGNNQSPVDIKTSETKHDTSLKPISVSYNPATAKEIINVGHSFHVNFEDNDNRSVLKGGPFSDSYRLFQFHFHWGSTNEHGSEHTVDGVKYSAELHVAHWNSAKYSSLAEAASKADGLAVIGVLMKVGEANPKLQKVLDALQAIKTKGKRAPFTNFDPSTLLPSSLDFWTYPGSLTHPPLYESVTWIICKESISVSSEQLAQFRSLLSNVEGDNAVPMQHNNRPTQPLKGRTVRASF
Procedure: as §1

hCA II = target: T7, hCA II (Homo sapiens, UniProt P00918); experiment: Stopped-Flow CO2 hydrase assay, hCA II; type: biochemical; settings: mean from 3 assays, errors ± 5–10%
T7 construct: made in house
Procedure: as §1

hCA VA = target: T8, hCA VA (Homo sapiens, UniProt P35218); experiment: Stopped-Flow CO2 hydrase assay, hCA VA; type: biochemical
T8 construct: made in house
T8 sequence (P35218 39-305): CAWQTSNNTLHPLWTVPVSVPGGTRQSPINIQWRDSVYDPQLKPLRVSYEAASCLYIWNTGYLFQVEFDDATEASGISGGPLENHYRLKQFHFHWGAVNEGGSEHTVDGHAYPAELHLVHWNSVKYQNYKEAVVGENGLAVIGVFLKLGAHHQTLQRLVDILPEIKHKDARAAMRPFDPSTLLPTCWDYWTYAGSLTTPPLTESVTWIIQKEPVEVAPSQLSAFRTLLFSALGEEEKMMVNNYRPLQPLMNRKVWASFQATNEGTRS
Procedure: as §1

hCA III [2] = target: T2, hCA III; design: method as in PMID 23605884; settings: HPLC assay; cited from earlier work
[3] = stopped-flow CO2 hydrase, mean from 3 assays, errors ± 5–10%, read-out: KI hCA VA

Row | Compound | Ki (hCA XII) [µM] | melting point [°C] | Selectivity Index (SI) hCA II/hCA III (hCA III [1]) | Ki (hCA III [1]) [µM] | Ki (hCA IV) [µM] | Ki (hCA VII) [µM] | Ki (hCA VB) [µM] | Ki (hCA I) [µM] | Ki (hCA II) [µM] | Ki (hCA VA; [3]) [µM] | Selectivity Index (SI) hCA I/hCA III (hCA III [1]) | Ki (hCA VA) [µM] | Ki (hCA III [2]) [µM]
1 | COc1cccc(OCc2cn(CCCCS(N)(=O)=O)nn2)c1 [Compound 43, 4–(4-((3-Methoxyphenoxy)methyl)-1H-1,2,3-triazol-1-yl)butane-1-sulfonamide] | 2.72 | 186 to 188 | 13.44 and 13.4 | 0.444 | 8.27 | 3.65 | 1.63 | 2.32 | 5.97 | 2.17 | 5.2 |  | 
2 | NS(=O)(=O)CCCCn1cc(CNC(=O)Nc2ccc(F)cc2)nn1 [Compound 44, 4–(4-((3–(4-Fluorophenyl)ureido)methyl)-1H-1,2,3-triazol-1-yl)butane-1-sulfonamide] | 3.71 | 284 to 286 | 12.66 and 12.7 | 0.599 | 2.92 | 3.35 | 2.55 | 5.38 | 7.58 |  | 9.0 | 1.35 | 
3 | COc1cc(C(=O)O)ccc1O [vanillic acid] |  |  |  |  |  |  |  |  |  |  |  |  | 87

Now from value to compound, other results behind:

Row | Ki (hCA XII) [µM] | melting point [°C] | Selectivity Index (SI) hCA II/hCA III (hCA III [1]) | Ki (hCA III [1]) [µM] | Ki (hCA IV) [µM] | Ki (hCA VII) [µM] | Ki (hCA VB) [µM] | Ki (hCA I) [µM] | Ki (hCA II) [µM] | Ki (hCA VA; [3]) [µM] | Selectivity Index (SI) hCA I/hCA III (hCA III [1]) | Compound | Ki (hCA VA) [µM] | Ki (hCA III [2]) [µM]
4 | 3.07 | 251 to 253 | 5.8 | 0.676 | 5.61 | 5.3 | 6.67 | 8.54 | 3.93 | 6.04 |  | COc1ccc(OCc2cn(CCCCS(N)(=O)=O)nn2)cc1 [Compound 42, 4–(4-((4-Methoxyphenoxy)methyl)-1H-1,2,3-triazol-1-yl)butane-1-sulfonamide] |  | 
5 | 6.73 | 271 to 272 | 5.3 | 0.93 | 5.74 | 5.64 | 8.11 | 5.3 | 4.93 | 3.34 | 5.7 | Cc1ccc(NC(=O)NCc2cn(CCCCS(N)(=O)=O)nn2)cc1 [Compound 45, 4–(4-((3-(p-Tolyl)ureido)methyl)-1H-1,2,3-triazol-1-yl)butane-1-sulfonamide] |  | 
6 | 2.63 | > 300 | 1.6 | 0.553 | 3.59 | 3.61 | 5.87 | 5.39 | 0.879 | 1.8 | 9.7 | NS(=O)(=O)CCCCn1cc(CNC(=O)Nc2ccc(C(F)(F)F)cc2)nn1 [Compound 46, 4–(4-((3–(4-(Trifluoromethyl)phenyl)ureido)methyl)-1H-1,2,3-triazol-1-yl)butane-1-sulfonamide] |  | 
7 | 2.83 | 259 to 261 | 1.15 and 1.1 | 0.493 | 2.6 | 1.95 | 1.43 | 6.52 | 0.566 | 3.82 | 13.2 | CCOC(=O)c1ccc(NC(=O)NCc2cn(CCCCS(N)(=O)=O)nn2)cc1 [Compound 47, Ethyl 4–(3-((1–(4-sulfamoylbutyl)-1H-1,2,3-triazol-4-yl)methyl)ureido)benzoate] |  | 
8 | 4.66 | 217 to 218 | 9.7 | 0.476 | > 10 | 3.9 | 1.14 | 5.52 | 4.61 | 4.16 | 11.6 | COc1cccc(NC(=O)NCc2cn(CCCCS(N)(=O)=O)nn2)c1 [Compound 48, 4–(4-((3–(3-Methoxyphenyl)ureido)methyl)-1H-1,2,3-triazol-1-yl)butane-1-sulfonamide] |  | 
